Test results as given in patent US8791143B2, “Anthranilic diamide derivatives having cyclic side-chains” (priority 2010, dated 2014).
Like-named read-outs stand apart in the source and are kept apart here.

Key:
[1] = log P by HPLC on reversed-phase columns (EEC Directive 79/831 Annex V.A8); type: physicochemical
[2] = tested on: caterpillars of the armyworm (Spodoptera frugiperda); experiment: Spodoptera frugiperda test (SPODFR spray treatment); type: in vivo; conditions: for pest or weed control at 100 g/ha: Spodoptera frugiperda, 168 h, read-out: activity in % (caterpillars killed)
[3] = tested on: larvae of the mustard beetle (Phaedon cochleariae); experiment: Phaedon test (PHAECO spray treatment); conditions: for pest or weed control at 100 g/ha: Phaedon cochleariae, 168 h, read-out: activity in % (beetle larvae killed)
[4] = reversed-phase C18 HPLC column, pH 2.7, HPLC reversed-phase C18, acidic range pH 2.7 (HCOOH), only or first value of the cell, read-out: log P
[5] = application rate 100 g/ha, after 7 days

| Compound | chromatographic logP [1, 4] | log P ([1]; HPLC reversed-phase C18, acidic range pH 2.7 (HCOOH), only or first value of the cell) | pest or weed control at 100 g/ha [2, 5] [%] | pest or weed control at 100 g/ha [3] [%] | chromatographic logP ([1]; pH 2.7, log P) | pest or weed control at 100 g/ha [2] [%] | activity in % (caterpillars killed) [2, 5] [%] | activity in % (beetle larvae killed) [3, 5] [%] |
| --- | --- | --- | --- | --- | --- | --- | --- | --- |
| Cc1cc(Cl)cc(C(=O)NCc2cccc(OC(F)(F)F)c2)c1NC(=O)c1cc(Cn2nnc(C(F)F)n2)nn1-c1ncccc1Cl [Example 160] | 3.79 | – | 100 | 100 | – | – | – | – |
| Cc1cc(F)cc(C(=O)NCc2cccc(OC(F)(F)F)c2)c1NC(=O)c1cc(Cn2nnc(C(F)(F)F)n2)nn1-c1ncccc1Cl [Example 169] | 3.95 | – | 100 | 100 | – | – | – | – |
| Cc1cc(Cl)cc(C(=O)NCc2ccccc2OC(F)F)c1NC(=O)c1cc(Cn2nnc(C(F)F)n2)nn1-c1ncccc1Cl [Example 175] | 3.47 | – | 100 | 100 | – | – | – | – |
| Cc1cc(C#N)cc(C(=O)NCc2ccc3c(c2)OCO3)c1NC(=O)c1cc(Cn2nnc(C(F)(F)F)n2)nn1-c1ccccc1Cl [Example 182] | 3.64 | – | 83 | 100 | – | – | – | – |
| Cc1c(F)ccc(C(=O)NCc2cccc(Cl)c2)c1NC(=O)c1cc(Cn2nnc(C(F)(F)F)n2)nn1-c1ncccc1Cl [Example 183] | – | – | – | 100 | 3.82 | 100 | – | – |
| Cc1c(F)ccc(C(=O)NCc2ccc(Cl)cc2)c1NC(=O)c1cc(Cn2nnc(C(F)(F)F)n2)nn1-c1ncccc1Cl [Example 184] | – | – | – | 100 | 3.8 | 100 | – | – |
| Cc1c(F)ccc(C(=O)NCc2ccccc2OC(F)(F)F)c1NC(=O)c1cc(Cn2nnc(C(F)(F)F)n2)nn1-c1ncccc1Cl [Example 185] | 4.04 | – | 100 | 100 | – | – | – | – |
| Cc1c(F)ccc(C(=O)NCc2cccc(OC(F)(F)F)c2)c1NC(=O)c1cc(Cn2nnc(C(F)(F)F)n2)nn1-c1ncccc1Cl [Example 186] | 4.07 | – | 100 | 100 | – | – | – | – |
| Cc1c(F)ccc(C(=O)NCc2ccc(OC(F)(F)F)cc2)c1NC(=O)c1cc(Cn2nnc(C(F)(F)F)n2)nn1-c1ncccc1Cl [Example 187] | 4.05 | – | 100 | 100 | – | – | – | – |
| Cc1cc(C#N)cc(C(=O)NCc2ccccc2OC(F)(F)F)c1NC(=O)c1cc(Cn2nnc(C(F)(F)F)n2)nn1-c1c(Cl)cccc1Cl [Example 188] | 4.13 | – | 100 | 100 | – | – | – | – |
| Cc1cc(C#N)cc(C(=O)NCc2ccccc2OC(F)F)c1NC(=O)c1cc(Cn2nnc(C(F)(F)F)n2)nn1-c1c(Cl)cccc1Cl [Example 189] | 3.75 | – | 100 | 100 | – | – | – | – |
| O=C(NCc1cccc(OC(F)(F)F)c1)c1cc(Br)cc(Cl)c1NC(=O)c1cc(Cn2nnc(C(F)(F)F)n2)nn1-c1ncccc1Cl [Example 194] | 4.32 | – | 100 | 100 | – | – | – | – |
| O=C(NCc1ccc(OC(F)(F)F)cc1)c1cc(Br)cc(Cl)c1NC(=O)c1cc(Cn2nnc(C(F)(F)F)n2)nn1-c1ncccc1Cl [Example 195] | 4.31 | – | 100 | 100 | – | – | – | – |
| Cc1ccc(Cl)c(C(=O)NCc2ccccc2Cl)c1NC(=O)c1cc(Cn2nnc(C(F)(F)F)n2)nn1-c1ncccc1Cl [Example 196] | – | – | – | 100 | 3.64 | 100 | – | – |
| Cc1ccc(Cl)c(C(=O)NCc2cccc(Cl)c2)c1NC(=O)c1cc(Cn2nnc(C(F)(F)F)n2)nn1-c1ncccc1Cl [Example 197] | – | – | – | 100 | 3.74 | 100 | – | – |
| Cc1c(F)ccc(C(=O)NCc2ccccc2Cl)c1NC(=O)c1cc(Cn2nnc(C(F)(F)F)n2)nn1-c1ncccc1Cl [Example 202] | – | – | – | 100 | 3.79 | 100 | – | – |
| O=C(NCc1ccccc1Cl)c1cc(Br)cc(Cl)c1NC(=O)c1cc(Cn2nnc(C(F)(F)F)n2)nn1-c1ncccc1Cl [Example 203] | – | – | – | 100 | 4.07 | 100 | – | – |
| O=C(NCc1cccc(Cl)c1)c1cc(Br)cc(Cl)c1NC(=O)c1cc(Cn2nnc(C(F)(F)F)n2)nn1-c1ncccc1Cl [Example 204] | – | – | – | 100 | 4.09 | 100 | – | – |
| O=C(NCc1ccc(Cl)cc1)c1cc(Br)cc(Cl)c1NC(=O)c1cc(Cn2nnc(C(F)(F)F)n2)nn1-c1ncccc1Cl [Example 205] | – | – | – | 100 | 4.08 | 100 | – | – |
| O=C(NCc1cccc(Cl)c1)c1cc(Cl)cc(F)c1NC(=O)c1cc(Cn2nnc(C(F)(F)F)n2)nn1-c1ncccc1Cl [Example 207] | 3.89 | – | 100 | 100 | – | – | – | – |
| O=C(NCc1ccccc1OC(F)(F)F)c1cc(Cl)cc(F)c1NC(=O)c1cc(Cn2nnc(C(F)(F)F)n2)nn1-c1ncccc1Cl [Example 209] | 4.12 | – | 100 | 100 | – | – | – | – |
| O=C(NCc1cccc(OC(F)(F)F)c1)c1cc(Cl)cc(F)c1NC(=O)c1cc(Cn2nnc(C(F)(F)F)n2)nn1-c1ncccc1Cl [Example 210] | 4.22 | – | 100 | 100 | – | – | – | – |
| Cc1cc(C#N)cc(C(=O)NCc2cccc(OC(F)(F)F)c2)c1NC(=O)c1cc(Cn2nnc(C(F)(F)F)n2)nn1-c1ccccc1Cl [Example 213] | 4.18 | – | 100 | 100 | – | – | – | – |

Second part, led by results:

| chromatographic logP [1, 4] | log P ([1]; HPLC reversed-phase C18, acidic range pH 2.7 (HCOOH), only or first value of the cell) | Compound | pest or weed control at 100 g/ha [2, 5] [%] | pest or weed control at 100 g/ha [3] [%] | chromatographic logP ([1]; pH 2.7, log P) | pest or weed control at 100 g/ha [2] [%] | activity in % (caterpillars killed) [2, 5] [%] | activity in % (beetle larvae killed) [3, 5] [%] |
| --- | --- | --- | --- | --- | --- | --- | --- | --- |
| 3.42 | – | Cc1cc(Cl)cc(C(=O)NCc2ccc(OC(F)F)cc2)c1NC(=O)c1cc(Cn2nnc(C(F)F)n2)nn1-c1ncccc1Cl [Example 161] | 100 | 100 | – | – | – | – |
| 3.42 | – | Cc1cc(C#N)cc(C(=O)NCc2cccc(OC(F)(F)F)c2)c1NC(=O)c1cc(Cn2nnc(C(F)F)n2)nn1-c1ncccc1Cl [Example 163] | 100 | 100 | – | – | – | – |
| 3.42 | – | Cc1cc(C#N)cc(C(=O)NCc2ccc(OC(F)(F)F)cc2)c1NC(=O)c1cc(Cn2nnc(C(F)F)n2)nn1-c1ncccc1Cl [Example 164] | 100 | 100 | – | – | – | – |
| 3.04 | – | Cc1cc(C#N)cc(C(=O)NCc2ccc(OC(F)F)cc2)c1NC(=O)c1cc(Cn2nnc(C(F)F)n2)nn1-c1ncccc1Cl [Example 165] | 100 | 100 | – | – | – | – |
| 3.91 | – | Cc1cc(C#N)cc(C(=O)NCc2cccc(OC(F)(F)F)c2)c1NC(=O)c1cc(Cn2nnc(C(F)(F)F)n2)nn1-c1ncccc1Cl [Example 166] | 100 | 100 | – | – | – | – |
| 3.9 | – | Cc1cc(C#N)cc(C(=O)NCc2ccc(OC(F)(F)F)cc2)c1NC(=O)c1cc(Cn2nnc(C(F)(F)F)n2)nn1-c1ncccc1Cl [Example 167] | 100 | 100 | – | – | – | – |
| 3.49 | – | Cc1cc(C#N)cc(C(=O)NCc2ccc(OC(F)F)cc2)c1NC(=O)c1cc(Cn2nnc(C(F)(F)F)n2)nn1-c1ncccc1Cl [Example 168] | 100 | 100 | – | – | – | – |
| 3.55 | – | Cc1cc(F)cc(C(=O)NCc2ccc(OC(F)F)cc2)c1NC(=O)c1cc(Cn2nnc(C(F)(F)F)n2)nn1-c1ncccc1Cl [Example 170] | 100 | 100 | – | – | – | – |
| 3.08 | – | Cc1cc(C#N)cc(C(=O)NCc2cccc(OC(F)F)c2)c1NC(=O)c1cc(Cn2nnc(C(F)F)n2)nn1-c1ncccc1Cl [Example 178] | 83 | 100 | – | – | – | – |
| 3.54 | – | Cc1cc(C#N)cc(C(=O)NCc2cccc(OC(F)F)c2)c1NC(=O)c1cc(Cn2nnc(C(F)(F)F)n2)nn1-c1ncccc1Cl [Example 180] | 100 | 100 | – | – | – | – |
| 3.88 | – | Cc1cc(C#N)cc(C(=O)NCc2ccccc2OC(F)F)c1NC(=O)c1cc(Cn2nnc(C(F)(F)F)n2)nn1-c1ccccc1Cl [Example 190] | 100 | 100 | – | – | – | – |
| 3.81 | – | Cc1cc(C#N)cc(C(=O)NCc2ccc(OC(F)F)cc2)c1NC(=O)c1cc(Cn2nnc(C(F)(F)F)n2)nn1-c1ccccc1Cl [Example 191] | 100 | 100 | – | – | – | – |
| 3.98 | – | Cc1cc(C#N)cc(C(=O)NCc2ccc(OC(F)(F)F)cc2)c1NC(=O)c1cc(Cn2nnc(C(F)(F)F)n2)nn1-c1ccccc1Cl [Example 192] | 100 | 100 | – | – | – | – |
| – | 3.95 | O=C(NCc1ccc(Cl)cc1)c1cc(Cl)cc(F)c1NC(=O)c1cc(Cn2nnc(C(F)(F)F)n2)nn1-c1ncccc1Cl [Example 208] | – | – | – | – | 100 | 100 |
| 4.21 | – | O=C(NCc1ccc(OC(F)(F)F)cc1)c1cc(Cl)cc(F)c1NC(=O)c1cc(Cn2nnc(C(F)(F)F)n2)nn1-c1ncccc1Cl [Example 211] | 100 | 100 | – | – | – | – |
| 3.67 | – | Cc1cc(C#N)cc(C(=O)NCc2cccc(OC(F)F)c2)c1NC(=O)c1cc(Cn2nnc(C(F)(F)F)n2)nn1-c1ccccc1Cl [Example 212] | 100 | 100 | – | – | – | – |
